≈ marks a conversion by molar mass, not a printed value.
Key:
Format in all cases: functional
Staphylococcus aureus [1] = assay: Antibacterial activity against methicillin-susceptible Staphylococcus aureus by CLSI M7-A7 broth microdilution method
Enterococcus faecalis [2] = assay: Antibacterial activity against vancomycin-susceptible Enterococcus faecalis assessed as resistant isolates by CLSI M7-A7 broth microdilution method
Streptococcus pyogenes [3] = assay: Antibacterial activity against erythromycin-susceptible Streptococcus pyogenes by CLSI M7-A7 broth microdilution method
Enterococcus faecium [4] = assay: Antibacterial activity against vancomycin-resistant Enterococcus faecium assessed as resistant isolates by CLSI M7-A7 broth microdilution method
Enterococcus faecium [5] = assay: Antibacterial activity against vancomycin-resistant Enterococcus faecium assessed as susceptible isolates by CLSI M7-A7 broth microdilution method
Staphylococcus aureus [6] = assay: Antibacterial activity against methicillin-resistant Staphylococcus aureus assessed as resistant isolates by CLSI M7-A7 broth microdilution method
Streptococcus agalactiae [7] = assay: Antibacterial activity against erythromycin-nonsusceptible Streptococcus agalactiae by CLSI M7-A7 broth microdilution method
Staphylococcus aureus [8] = assay: Antibacterial activity against methicillin-resistant Staphylococcus aureus by CLSI M7-A7 broth microdilution method
Streptococcus agalactiae [9] = assay: Antibacterial activity against erythromycin-susceptible Streptococcus agalactiae assessed as susceptible isolates by CLSI M7-A7 broth microdilution method
Streptococcus viridans [10] = assay: Antibacterial activity against penicillin-susceptible Streptococcus viridans assessed as susceptible isolates by CLSI M7-A7 broth microdilution method
Streptococcus agalactiae [11] = assay: Antibacterial activity against erythromycin-susceptible Streptococcus agalactiae by CLSI M7-A7 broth microdilution method
Streptococcus viridans [12] = assay: Antibacterial activity against penicillin-susceptible Streptococcus viridans by CLSI M7-A7 broth microdilution method
Staphylococcus aureus [13] = assay: Antibacterial activity against coagulase-negative and oxacillin-resistant Staphylococcus aureus by CLSI M7-A7 broth microdilution method
Enterococcus faecalis [14] = assay: Antibacterial activity against vancomycin-resistant Enterococcus faecalis by CLSI M7-A7 broth microdilution method
Streptococcus pyogenes [15] = assay: Antibacterial activity against erythromycin-nonsusceptible Streptococcus pyogenes assessed as susceptible isolates by CLSI M7-A7 broth microdilution method
Pasteurella multocida = assay: Antibacterial activity against Pasteurella multocida by CLSI M7-A7 broth microdilution method
Staphylococcus aureus [16] = assay: Antibacterial activity against methicillin-susceptible Staphylococcus aureus assessed as susceptible isolates by CLSI M7-A7 broth microdilution method
Staphylococcus aureus [17] = assay: Antibacterial activity against coagulase-negative and oxacillin-resistant Staphylococcus aureus assessed as susceptible isolates by CLSI M7-A7 broth microdilution method
Streptococcus pyogenes [18] = assay: Antibacterial activity against erythromycin-nonsusceptible Streptococcus pyogenes by CLSI M7-A7 broth microdilution method
Moraxella catarrhalis = assay: Antibacterial activity against beta lactamase-positive Moraxella catarrhalis by CLSI M7-A7 broth microdilution method
Enterococcus faecalis [19] = assay: Antibacterial activity against vancomycin-susceptible Enterococcus faecalis assessed as susceptible isolates by CLSI M7-A7 broth microdilution method
Streptococcus viridans [20] = assay: Antibacterial activity against penicillin-nonsusceptible Streptococcus viridans by CLSI M7-A7 broth microdilution method
Staphylococcus aureus [21] = assay: Antibacterial activity against coagulase-negative and oxacillin-susceptible Staphylococcus aureus by CLSI M7-A7 broth microdilution method
Staphylococcus aureus [22] = assay: Antibacterial activity against coagulase-negative and oxacillin-resistant Staphylococcus aureus assessed as resistant isolates by CLSI M7-A7 broth microdilution method
Enterococcus faecium [23] = assay: Antibacterial activity against vancomycin-resistant Enterococcus faecium by CLSI M7-A7 broth microdilution method
Staphylococcus aureus [24] = assay: Antibacterial activity against methicillin-susceptible Staphylococcus aureus assessed as resistant isolates by CLSI M7-A7 broth microdilution method
Streptococcus pyogenes [25] = assay: Antibacterial activity against erythromycin-susceptible Streptococcus pyogenes assessed as susceptible isolates by CLSI M7-A7 broth microdilution method
Streptococcus viridans [26] = assay: Antibacterial activity against penicillin-nonsusceptible Streptococcus viridans assessed as resistant isolates by CLSI M7-A7 broth microdilution method
Streptococcus viridans [27] = assay: Antibacterial activity against penicillin-nonsusceptible Streptococcus viridans assessed as susceptible isolates by CLSI M7-A7 broth microdilution method
Streptococcus agalactiae [28] = assay: Antibacterial activity against erythromycin-nonsusceptible Streptococcus agalactiae assessed as susceptible isolates by CLSI M7-A7 broth microdilution method
Staphylococcus aureus [29] = assay: Antibacterial activity against coagulase-negative and oxacillin-susceptible Staphylococcus aureus assessed as resistant isolates by CLSI M7-A7 broth microdilution method
Staphylococcus aureus [30] = assay: Antibacterial activity against methicillin-resistant Staphylococcus aureus assessed as susceptible isolates by CLSI M7-A7 broth microdilution method
Enterococcus faecalis [31] = assay: Antibacterial activity against vancomycin-susceptible Enterococcus faecalis by CLSI M7-A7 broth microdilution method
Staphylococcus aureus [32] = assay: Antibacterial activity against coagulase-negative and oxacillin-susceptible Staphylococcus aureus assessed as susceptible isolates by CLSI M7-A7 broth microdilution method
Enterococcus faecalis [33] = assay: Antibacterial activity against vancomycin-resistant Enterococcus faecalis assessed as resistant isolates by CLSI M7-A7 broth microdilution method
Streptococcus pneumoniae [34] = assay: Antibacterial activity against penicillin-susceptible Streptococcus pneumoniae by CLSI M7-A7 broth microdilution method
Streptococcus pneumoniae [35] = assay: Antibacterial activity against penicillin-resistant Streptococcus pneumoniae assessed as susceptible isolates by CLSI M7-A7 broth microdilution method
Enterococcus faecalis [36] = assay: Antibacterial activity against vancomycin-resistant Enterococcus faecalis assessed as susceptible isolates by CLSI M7-A7 broth microdilution method
Streptococcus pneumoniae [37] = assay: Antibacterial activity against penicillin-susceptible Streptococcus pneumoniae assessed as susceptible isolates by CLSI M7-A7 broth microdilution method
Streptococcus pneumoniae [38] = assay: Antibacterial activity against penicillin-resistant Streptococcus pneumoniae by CLSI M7-A7 broth microdilution method

## CC1(C)S[C@@H]2[C@H](NC(=O)Cc3ccccc3)C(=O)N2[C@H]1C(=O)O [PENICILLIN G]
Staphylococcus aureus [1]
  MIC50: 4 µg/mL (≈ 12 µM)
  MIC90: > 16 µg/mL
Enterococcus faecalis [2]
  Activity: 0%
Streptococcus pyogenes [3]
  MIC: ≤ 0.12 µg/mL
  MIC50: ≤ 0.12 µg/mL
  MIC90: ≤ 0.12 µg/mL
Enterococcus faecium [4]
  Activity: 100%
Enterococcus faecium [5]
  Activity: 0%
Staphylococcus aureus [6]
  Activity: 99.5%
Streptococcus agalactiae [7]
  MIC: ≤ 0.12 µg/mL
  MIC50: ≤ 0.12 µg/mL
  MIC90: ≤ 0.12 µg/mL
Staphylococcus aureus [8]
  MIC50: > 16 µg/mL
Streptococcus agalactiae [9]
  Activity: 100%
Streptococcus viridans [10]
  Activity: 100%
Streptococcus agalactiae [11]
  MIC: ≤ 0.12 µg/mL
  MIC50: ≤ 0.12 µg/mL
  MIC90: ≤ 0.12 µg/mL
Streptococcus viridans [12]
  MIC: ≤ 0.12 µg/mL
  MIC50: ≤ 0.12 µg/mL
  MIC90: ≤ 0.12 µg/mL
Staphylococcus aureus [13]
  MIC50: 8 µg/mL (≈ 23.9 µM)
Enterococcus faecalis [14]
  MIC50: 2 µg/mL (≈ 5.98 µM)
  MIC90: 4 µg/mL (≈ 12 µM)
Streptococcus pyogenes [15]
  Activity: 100%
Pasteurella multocida
  MIC50: ≤ 0.12 µg/mL
  MIC90: 0.25 µg/mL (≈ 0.748 µM)
Staphylococcus aureus [16]
  Activity: 16.7%
Staphylococcus aureus [17]
  Activity: 2.3%
Streptococcus pyogenes [18]
  MIC: ≤ 0.12 µg/mL
  MIC50: ≤ 0.12 µg/mL
  MIC90: ≤ 0.12 µg/mL
Moraxella catarrhalis
  MIC50: 4 µg/mL (≈ 12 µM)
  MIC90: 16 µg/mL (≈ 47.8 µM)
Enterococcus faecalis [19]
  Activity: 100%
Streptococcus viridans [20]
  MIC50: 0.5 µg/mL (≈ 1.5 µM)
  MIC90: 8 µg/mL (≈ 23.9 µM)
Staphylococcus aureus [21]
  MIC50: 0.5 µg/mL (≈ 1.5 µM)
  MIC90: 2 µg/mL (≈ 5.98 µM)
Staphylococcus aureus [22]
  Activity: 97.7%
Enterococcus faecium [23]
  MIC: > 16 µg/mL
  MIC50: > 16 µg/mL
  MIC90: > 16 µg/mL
Staphylococcus aureus [24]
  Activity: 83.3%
Streptococcus pyogenes [25]
  Activity: 98.9%
Streptococcus viridans [26]
  Activity: 28.6%
Streptococcus viridans [27]
  Activity: 0%
Streptococcus agalactiae [28]
  Activity: 95.2%
Staphylococcus aureus [29]
  Activity: 67.7%
Staphylococcus aureus [30]
  Activity: 0.5%
Enterococcus faecalis [31]
  MIC50: 2 µg/mL (≈ 5.98 µM)
  MIC90: 4 µg/mL (≈ 12 µM)
Staphylococcus aureus [32]
  Activity: 32.3%
Enterococcus faecalis [33]
  Activity: 0%

## CN[C@H](CC(C)C)C(=O)N[C@H]1C(=O)N[C@@H](CC(N)=O)C(=O)N[C@H]2C(=O)N[C@H]3C(=O)N[C@H](C(=O)N[C@H](C(=O)O)c4cc(O)cc(O)c4-c4cc3ccc4O)[C@H](O)c3ccc(c(Cl)c3)Oc3cc2cc(c3O[C@@H]2O[C@H](CO)[C@@H](O)[C@H](O)[C@H]2O[C@H]2C[C@](C)(N)[C@H](O)[C@H](C)O2)Oc2ccc(cc2Cl)[C@H]1O [VANCOMYCIN]
Staphylococcus aureus [1]
  MIC50: 0.5 µg/mL (≈ 0.345 µM)
  MIC90: 1 µg/mL (≈ 0.69 µM)
Enterococcus faecalis [2]
  Activity: 0%
Streptococcus pyogenes [3]
  MIC: 0.25 µg/mL (≈ 0.173 µM)
  MIC50: 0.25 µg/mL (≈ 0.173 µM)
  MIC90: 0.5 µg/mL (≈ 0.345 µM)
Enterococcus faecium [4]
  Activity: 100%
Enterococcus faecium [5]
  Activity: 0%
Staphylococcus aureus [6]
  Activity: 0.3%
Streptococcus agalactiae [7]
  MIC50: 0.5 µg/mL (≈ 0.345 µM)
  MIC90: 0.5 µg/mL (≈ 0.345 µM)
Staphylococcus aureus [8]
  MIC50: 1 µg/mL (≈ 0.69 µM)
  MIC90: 1 µg/mL (≈ 0.69 µM)
Streptococcus agalactiae [9]
  Activity: 100%
Streptococcus viridans [10]
  Activity: 100%
Streptococcus agalactiae [11]
  MIC50: 0.5 µg/mL (≈ 0.345 µM)
  MIC90: 0.5 µg/mL (≈ 0.345 µM)
Streptococcus viridans [12]
  MIC50: 0.5 µg/mL (≈ 0.345 µM)
  MIC90: 0.5 µg/mL (≈ 0.345 µM)
Staphylococcus aureus [13]
  MIC50: 1 µg/mL (≈ 0.69 µM)
  MIC90: 2 µg/mL (≈ 1.38 µM)
Enterococcus faecalis [14]
  MIC: > 16 µg/mL
  MIC50: > 16 µg/mL
  MIC90: > 16 µg/mL
Streptococcus pneumoniae [34]
  MIC50: 0.25 µg/mL (≈ 0.173 µM)
  MIC90: 0.5 µg/mL (≈ 0.345 µM)
Streptococcus pyogenes [15]
  Activity: 100%
Streptococcus pneumoniae [35]
  Activity: 100%
Streptococcus pyogenes [18]
  MIC: 0.25 µg/mL (≈ 0.173 µM)
  MIC50: 0.25 µg/mL (≈ 0.173 µM)
  MIC90: 0.5 µg/mL (≈ 0.345 µM)
Enterococcus faecalis [19]
  Activity: 100%
Streptococcus viridans [20]
  MIC: 0.5 µg/mL (≈ 0.345 µM)
  MIC50: 0.5 µg/mL (≈ 0.345 µM)
  MIC90: 1 µg/mL (≈ 0.69 µM)
Staphylococcus aureus [21]
  MIC50: 1 µg/mL (≈ 0.69 µM)
  MIC90: 2 µg/mL (≈ 1.38 µM)
Staphylococcus aureus [22]
  Activity: 0%
Enterococcus faecium [23]
  MIC: > 16 µg/mL
  MIC50: > 16 µg/mL
  MIC90: > 16 µg/mL
Staphylococcus aureus [24]
  Activity: 0%
Streptococcus pyogenes [25]
  Activity: 100%
Streptococcus viridans [27]
  Activity: 92.9%
Streptococcus agalactiae [28]
  Activity: 100%
Staphylococcus aureus [29]
  Activity: 0%
Enterococcus faecalis [36]
  Activity: 0%
Streptococcus pneumoniae [37]
  Activity: 100%
Enterococcus faecalis [31]
  MIC50: 1 µg/mL (≈ 0.69 µM)
  MIC90: 2 µg/mL (≈ 1.38 µM)
Streptococcus pneumoniae [38]
  MIC50: 0.25 µg/mL (≈ 0.173 µM)
  MIC90: 0.5 µg/mL (≈ 0.345 µM)
Enterococcus faecalis [33]
  Activity: 100%
